In US12378245B2, “Crystalline forms of an RSK inhibitor” (PHOENIX MOLECULAR DESIGNS, priority 2019, dated 2025):

How the values were obtained:
Assay type in all cases: physicochemical
[1] = Dynamic Vapor Sorption (DVS); conditions: for form by post-DVS XRPD analysis: after exposure to DVS humidity conditions
Protocol: Approximately, 10-20 mg of sample was placed into a mesh vapour sorption balance pan and loaded into a DVS Intrinsic dynamic vapour sorption balance by Surface Measurement Systems. The sample was subjected to a ramping profile from 40-90% relative humidity (RH) at 10% increments, maintaining the sample at each step until a stable weight had been achieved (dm/dt 0.004%, minimum step length 30 minutes, maximum step length 500 minutes) at 25° C. After completion of the sorption cycle, the sample was dried using the same procedure to 0% RH and then a second sorption cycle back to 40% RH. Two cycles were performed. The weight change during the sorption/desorption cycles were plotted, allowing for the hygroscopic nature of the sample to be determined. XRPD analysis was then carried out on any solid retained.

[2] = Stability Studies - Eight Week Study; conditions: 40° C./75% RH (uncapped), 80° C. (capped), ambient light and temperature (approx. 22° C.)
Protocol: About 5 mg of Compound 1, Form 1 was weighed into twenty-four, 1.5 mL glass vials. Each vial was placed at either 40° C./75% RH (uncapped vial), 80° C. (capped vial) and under ambient light and temperature (approx. 22° C., capped vial) for a total of 8 weeks. […] was removed from each condition for XRPD, ^1H NMR and HPLC purity analysis at 1 week, 2 weeks, 4 weeks and 8 weeks.

[3] = Stability Studies - One Week Study; conditions: 40° C./75% RH or 80° C./under ambient light for 1 week
Protocol: About 15 mg of Compound 1, Forms 1 and 2 were separately placed at either 40° C./75% RH or 80° C./under ambient light for 1 week. The resulting solids were analysed by XRPD and HPLC purity. No changes in Form 1 or Form 2 were observed under these conditions after 1 week.

| form by post-DVS XRPD analysis ([1]; listed as Form 2 of Compound 1, hydrochloride) | change in mass / mass uptake by DVS ([1]; at 90% RH, 25° C., listed as Form 2 of Compound 1, hydrochloride) [%] | form by post-DVS XRPD analysis ([1]; listed as Form 1 of Compound 1, hydrochloride) | water uptake by DVS ([1]; at 90% RH, 25° C.) | change in mass / mass uptake by DVS ([1]; at 90% RH, 25° C., listed as Form 1 of Compound 1, hydrochloride) | hygroscopic nature by DVS ([1]; ramping 40-90% RH, 25° C., two cycles) | change in purity by HPLC ([2]; 8 weeks) | change by XRPD and NMR analysis ([2]; after 8 weeks) | changes by XRPD and HPLC purity [3] | Structure (SMILES) |
| --- | --- | --- | --- | --- | --- | --- | --- | --- | --- |
| no change in form | 1.8 |  |  |  |  |  |  |  | C[C@@H]1CNC(=O)c2cc3ccc(C(=O)Nc4cnn(Cc5ccc(N)cc5)c4)nc3n21.Cl [Compound 1, Form 2, (R)—N-(1-(4-aminobenzyl)-1H-pyrazol-4-yl)-9-methyl-6-oxo-6,7,8,9-tetrahydropyrido[3′,2′:4,5]pyrrolo[1,2-a]pyrazine-2-carboxamide hydrochloride] |
|  |  | remained as Form 1 | 0.2 equiv. of water | +0.8% | slightly hygroscopic | no significant change | no change | No changes | C[C@@H]1CNC(=O)c2cc3ccc(C(=O)Nc4cnn(Cc5ccc(N)cc5)c4)nc3n21.Cl [Compound 1, Form 1, (R)—N-(1-(4-aminobenzyl)-1H-pyrazol-4-yl)-9-methyl-6-oxo-6,7,8,9-tetrahydropyrido[3′,2′:4,5]pyrrolo[1,2-a]pyrazine-2-carboxamide hydrochloride] |
